Ends that are not written are not given here.
Assays:
[1] = target: T1, transporters associated with processing (Mus musculus, UniProt P21958+P36371); assay: Transporter associated with processing; type: biochemical
T1 sequence (P21958 1-724): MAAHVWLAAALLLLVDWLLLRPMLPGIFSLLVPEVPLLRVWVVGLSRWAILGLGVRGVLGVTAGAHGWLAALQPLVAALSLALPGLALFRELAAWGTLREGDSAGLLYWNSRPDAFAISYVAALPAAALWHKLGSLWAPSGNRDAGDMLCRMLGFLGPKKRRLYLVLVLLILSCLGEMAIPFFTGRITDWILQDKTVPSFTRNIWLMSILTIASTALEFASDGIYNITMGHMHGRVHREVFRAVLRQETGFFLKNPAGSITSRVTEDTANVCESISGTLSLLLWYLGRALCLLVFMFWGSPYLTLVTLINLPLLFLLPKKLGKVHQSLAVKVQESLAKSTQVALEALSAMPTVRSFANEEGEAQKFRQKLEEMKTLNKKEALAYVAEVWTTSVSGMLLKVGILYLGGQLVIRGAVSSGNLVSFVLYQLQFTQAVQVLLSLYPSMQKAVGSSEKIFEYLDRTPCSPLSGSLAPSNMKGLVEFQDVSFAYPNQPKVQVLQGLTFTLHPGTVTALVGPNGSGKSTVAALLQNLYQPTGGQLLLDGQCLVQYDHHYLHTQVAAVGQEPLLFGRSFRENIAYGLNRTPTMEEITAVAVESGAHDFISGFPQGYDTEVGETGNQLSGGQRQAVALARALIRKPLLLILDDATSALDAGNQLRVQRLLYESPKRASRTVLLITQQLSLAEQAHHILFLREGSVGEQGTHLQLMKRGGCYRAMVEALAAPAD
T1 sequence (P36371 1-702): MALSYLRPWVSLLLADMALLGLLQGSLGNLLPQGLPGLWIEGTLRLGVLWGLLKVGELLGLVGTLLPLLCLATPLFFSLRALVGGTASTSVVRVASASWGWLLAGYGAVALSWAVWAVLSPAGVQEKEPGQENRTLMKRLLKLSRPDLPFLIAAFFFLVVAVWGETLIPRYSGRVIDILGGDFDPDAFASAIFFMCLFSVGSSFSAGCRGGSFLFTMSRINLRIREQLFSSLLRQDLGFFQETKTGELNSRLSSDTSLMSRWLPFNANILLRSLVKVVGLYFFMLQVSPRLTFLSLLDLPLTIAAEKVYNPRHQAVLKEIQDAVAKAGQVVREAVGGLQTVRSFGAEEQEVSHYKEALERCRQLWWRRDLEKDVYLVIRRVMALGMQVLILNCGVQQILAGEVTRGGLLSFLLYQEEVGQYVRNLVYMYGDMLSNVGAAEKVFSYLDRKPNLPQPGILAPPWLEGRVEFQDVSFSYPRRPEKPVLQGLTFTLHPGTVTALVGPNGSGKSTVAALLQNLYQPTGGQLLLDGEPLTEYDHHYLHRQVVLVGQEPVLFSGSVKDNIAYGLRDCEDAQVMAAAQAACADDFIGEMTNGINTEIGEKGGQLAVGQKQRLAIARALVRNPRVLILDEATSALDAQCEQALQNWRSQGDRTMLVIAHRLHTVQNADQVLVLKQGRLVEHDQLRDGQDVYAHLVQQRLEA

[2] = target: H-2K^b (Mus musculus, UniProt P01901); assay: Peptide competition cytotoxicity assay; type: cell-based, murine

Row | Sequence | IC50 [1] | IC50 [2]
1 | VMCTYSPPL | 2.47 µM | 
2 | TYSPPLNKL | 5.81 µM | 13600 nM
3 | LNKLFCQL | 7.16 µM | 2040 nM
4 | YSPPLNKLF | > 92.7 µM | 464 nM
5 | AIYKKSQHM | 4.07 µM | 271 nM
6 | TTIHYKYM | 5.68 µM | 
